Values after ≈ are worked out from the molar mass of the structure shown. Bounds are passed on as bounds.

Common to all, as to format: cell-based
Experiment [1] concerns Pseudomonas aeruginosa PAM 1020. The experiment in a line: MIC broth microdilution, P. aeruginosa PAM 1020 (wild type). To be noted: P. aeruginosa PAM 1020.
In experiment [2] the test system is Pseudomonas aeruginosa PAM 1154. In words: MIC broth microdilution, P. aeruginosa PAM 1154 (OprM::Hg). As to conditions: P. aeruginosa PAM 1154 OprM::Hg.
For experiment [3], the system named is Pseudomonas aeruginosa PAM 1135. In words: MIC broth microdilution, P. aeruginosa PAM 1135 (high level UPA resistance). As to conditions: P. aeruginosa PAM 1135 UPA1^r.
Experiment [4] relates to Pseudomonas aeruginosa PAM 1323. In words: MIC broth microdilution, P. aeruginosa PAM 1323 (medium level UPA resistance).
Another experiment relates to Escherichia Coli MC 4100. In words: MIC broth microdilution, E. coli MC 4100 (wild type). As to conditions: E. coli MC 4100.
The subject of experiment [5] is Escherichia Coli MC 4100 AcrAB. In words: MIC broth microdilution, E. coli MC 4100 AcrAB (ΔAcrAB). To be noted: E. coli AcrAB.
The test system of experiment [6] is Escherichia Coli MC 4100 AcrAB UPA3r. The experiment in a line: MIC broth microdilution, E. coli MC 4100 AcrAB UPA3r (ΔAcrAB, UPA resistant). As to conditions: E. coli AcrAB UPA3^r.
Experiment [7] relates to Staphylococcus aureus ATCC 29213. The experiment in a line: MIC broth microdilution, S. aureus ATCC 29213 (wild type). To be noted: S. aureus ATCC 29213.
The subject of experiment [8] is Staphylococcus aureus 8325-4. In words: MIC broth microdilution, S. aureus 8325-4 (wild type). As to conditions: S. aureus 8325-4.
The subject of experiment [9] is Pasteurella multocida pm002. In words: MIC broth microdilution, P. multocida pm002 (wild type).

On to `CC(N)C(=O)N(C)C(C)C(NC(=O)C(Cc1ccc(F)cc1)NC(=O)NC(C(=O)O)c1ccccc1)C(=O)NCC1CC(O)C(n2ccc(=O)[nH]c2=O)O1` (mixture of isomers) [Compound 141, 1-[5′-[(2S,3S)-N^3-L-Alanyl-N^2-[N-[[α(R,S)-1-carboxy-phenmethyl]carbamoyl]-L-4-fluorophenylalanyl]-N^3-methyl-2,3-diaminobutyramido]-3′,5′-dideoxy-α-L-arabinofuranosyl]uracil], for which the “MIC (μg/ml) Broth microdilution” value in experiment [1] was above 512 µg/mL; in [2], 512 µg/mL; in experiment [3], above 512 µg/mL; in experiment [4], above 512 µg/mL; in the experiment on Escherichia Coli MC 4100, above 512 µg/mL; in [5], 16 µg/mL. Also, the “MIC (μg/ml) Broth microdilution” value in [6], in experiment [7], in [8] and in experiment [9] was above 512 µg/mL throughout.

For the compound `CC(N)C(=O)N(C)C(C)C(NC(=O)C(Cc1ccccc1)NC(=O)NC(Cc1ccccc1)C(=O)O)C(=O)NCC1CC(O)C(n2ccc(=O)[nH]c2=O)O1` [Compound 122, 1-[5′-[[(2S,3S)-N^3-L-Alanyl-N^2-[N-[[(1S)-1-carboxy-phenethyl]carbamoyl]-L-phenylalanyl]-N^3-methyl-2,3-diaminobutyramido]-3′,5′-dideoxy-α-L-arabinofuranosyl]uracil], the “MIC (μg/ml) Broth microdilution” value was 64 µg/mL (≈ 85.2 µM) in [1]; 16 µg/mL (≈ 21.3 µM) in experiment [2]; above 512 µg/mL in [3]; above 512 µg/mL in experiment [4]; above 512 µg/mL with Escherichia Coli MC 4100; 4 µg/mL (≈ 5.33 µM) in [5]. The “MIC (μg/ml) Broth microdilution” value in [6] is 64 µg/mL (≈ 85.2 µM); in experiment [7] it was above 512 µg/mL; in [8], 512 µg/mL (≈ 682 µM); in experiment [9], above 512 µg/mL.

As for `C[C@H](N)C(=O)N(C)[C@@H](C)[C@H](NC(=O)[C@H](Cc1ccc2ccccc2c1)NC(=O)N[C@@H](Cc1ccc(O)cc1)C(=O)O)C(=O)NC[C@H]1C[C@@H](O)[C@H](n2ccc(=O)[nH]c2=O)O1` [Compound 152, 1-[5′-[(2S,3S)-N^3-L-Alanyl-N^2-[N-[[(1S)-1-carboxy-4-hydroxyphenethyl)carbamoyl]-L-3-(2-naphthyl)alanyl]-N^3-methyl-2,3-diaminobutyramido]-3′,5′-dideoxy-α-L-arabinofuranosyl]uracil], the “MIC (μg/ml) Broth microdilution” value is 256 µg/mL (≈ 313 µM) in experiment [1]; 64 µg/mL (≈ 78.3 µM) in experiment [2]; above 512 µg/mL in experiment [3]; above 512 µg/mL in [4]; 256 µg/mL (≈ 313 µM) with Escherichia Coli MC 4100; 2 µg/mL (≈ 2.45 µM) in experiment [5]. Besides, the “MIC (μg/ml) Broth microdilution” value was 64 µg/mL (≈ 78.3 µM) in [6], above 512 µg/mL in [7], above 512 µg/mL in [8] and above 512 µg/mL in [9].

Regarding `CSCCC(NC(=O)NC(Cc1ccc(O)cc1)C(=O)O)C(=O)NC(C(=O)NCC1CC(O)C(n2ccc(=O)[nH]c2=O)O1)C(C)N(C)C(=O)CN` [Compound 104, 1-[5′[(2S,3S)-N^2-(N-[[(1S)-1-Carboxy-4-hydroxyphenethyl]carbamoyl]-L-methionyl]-N^3-glycyl-N^3-methyl-2,3-diaminobutyramidol-3′,5′-dideoxy-α-L-arabinofuranosyl]uracil], the “MIC (μg/ml) Broth microdilution” value in experiment [1] is 32 µg/mL (≈ 43.4 µM); in experiment [2], 4 µg/mL (≈ 5.43 µM); in [3] it was above 512 µg/mL; in experiment [4], below 512 µg/mL; in the experiment with Escherichia Coli MC 4100 it was below 512 µg/mL; in [5], 16 µg/mL (≈ 21.7 µM). For the same compound, the “MIC (μg/ml) Broth microdilution” value in experiment [6] was 128 µg/mL (≈ 174 µM); in [7] it was above 512 µg/mL; in experiment [8], above 512 µg/mL; in experiment [9], 256 µg/mL (≈ 347 µM).

Source of the values: patent publication US6482921B1, “Uridyl peptide antibiotic (UPA) derivatives, their synthesis and use” (Essential Therapeutics, Inc., priority 1999, dated 2002).
